# According to EP0339444A1, “Elaiophylin derivatives, process for their preparation and use as medicaments” (HOECHST AKTIENGESELLSCHAFT, priority 1988, dated 1989):
# Tested on: Haemunchus contortus
# Assay: Anthelmintic activity in lambs artificially infected with abomasal nematodes (coproscopy up to 14 days after application, then necropsy with helminthological work-up)
# Format: in vivo
# Settings: Lämmer 30 bis 40 kg
# From the text: Die anthelminthische Wirkung der Elaiophylinderivate wurde an Lämmern mit 30 bis 40 kg Körpergewicht untersucht. Dazu wurden die Lämmer artifiziell mit Infektionsstadien von Labmagennematoden (Haemunchus contortus) infiziert. Nach Abschluß der Entwicklungszeit (Präpatenzperiode) der Nematoden erfolgte die Applikation der Elaiophylinderivate.
# Durch koproskopische Untersuchungen vor und bis zu 14 Tagen nach der Applikation der Elaiophylinderivate und anschließender Sektion mit helminthologischer Aufarbeitung wurde die prozentuale Reduktion der Schaf-Nematoden ermittelt (s. Tabelle 7). Als Vergleichssubstanz diente Elaiophylin. Zusätzlich wurde auch noch die antibakterielle Aktivität der erfindungsgemäßen Elaiophylinderivate gegen Staph. aureus und Strept. pyogenes ermittelt. Überraschenderweise zeigen die erfindungsgemäßen Verbindung keine oder nur sehr geringe antibakterielle Aktivität. Gerade deshalb eignen sich die erfindungsgemäßen Verbindungen insbesondere für den Einsatz als Anthelminthika, da hier eine antibakterielle Wirkung unerwünscht ist.
Structure (SMILES),"Reduktion v. H. contortus (%) (Dosierung 2,5 mg/kg (s.c.))","Reduktion v. H. contortus (%) (Dosierung 5,0 mg/kg (oral))"
CCOC(=O)C1NN=C2C(=O)OC(C(C)C(O)C(C)C3(O)CC(OC4CC(O)C(O)C(C)O4)C(CC)C(C)O3)C(C)/C=C/C3C(=NNC3C(=O)OCC)C(=O)OC(C(C)C(O)C(C)C3(O)CC(OC4CC(O)C(O)C(C)O4)C(CC)C(C)O3)C(C)/C=C/C21 (stereo not shown) [Verbindung 6],50-60%,50-60%
CCC1C(C)OC(O)(C(C)C(O)C(C)C2OC(=O)C3=NNCC3/C=C/C(C)C(C(C)C(O)C(C)C3(O)CC(OC4CC(O)C(O)C(C)O4)C(CC)C(C)O3)OC(=O)C3=NNCC3/C=C/C2C)CC1OC1CC(O)C(O)C(C)O1 (stereo not shown) [Verbindung 1],,35-45%
CCC1C(C)OC(O)(C(C)C(O)C(C)C2OC(=O)C3=NNCC3/C=C/C(C)C(C(C)C(O)C(C)C3(O)CC(OC4CC(OC(C)=O)C(OC(C)=O)C(C)O4)C(CC)C(C)O3)OC(=O)C3=NNCC3/C=C/C2C)CC1OC1CC(OC(C)=O)C(OC(C)=O)C(C)O1 (stereo not shown) [Verbindung 2],,40-50%
